We go through 27 compounds from patent publication US5834491A, “Bis(2-aminopyridine)s, preparation method therefor and use thereof for controlling parasitic infections” (priority 1994, dated 1998).

The test system of data set [1] is Plasmodium falciparum. The data set is described as follows: Antimalarial activity in vitro towards Plasmodium falciparum ([3H]hypoxanthine incorporation, infected human erythrocytes). The note with it: Erythrocyte, approximately 48 hours; for IC50 upper bound (active at tested concentration): Table I; for pIC50: Table II. It is filed as cell-based. On the procedure:
Evaluation of the antimalarial activity in vitro is carried out according to the method of DESJARDINS, CANFIELD, HATNES and CHULAY (Antimicrob. Agents Chemother., 1979, 16, 710-718). A compound according to the invention is brought into contact for approximately 48 hours with human erythrocytes infected with Plasmodium falciparum. When a radioactive nucleic acid precursor, hypoxanthine, is added to the preparation, only erythrocytes infected with Plasmodium and not affected by the said compound incorporate this precursor. […] The results are presented in Table I below, in the form of an IC50 (or ED50) (concentration of compound capable of inhibiting in vitro the growth of the parasites by 50%).
The derivatives according to the above examples are tested at three concentrations, 100, 33 and 10 nanomolar.

Data set [2] deals with Plasmodium vinckei, petteri or chabaudi. The data set is described as follows: Antimalarial activity in vivo, infected mice, 4 days. The note with it: ip, I.P., twice daily for 4 consecutive days. Set-up: species or system petteri or chabaudi (male Swiss mice). The method, then:
This activity is measured according to the test described by PETERS W. (Chemotherapy and Drug resistance in Malaria, 1970). A compound according to the invention is administered for 4 consecutive days to mice infected beforehand with malaria using Plasmodium vinckei, petteri or chabaudi.
The said compound is dissolved in 0.9% aqueous NaCl solution or, where appropriate, in 10% aqueous gum arabic solution. The preparations are thus administered intraperitoneally or subcutaneously to male Swiss mice of average weight 30 to 40 g which have been infected beforehand intravenously with Plasmodium petterei or P. chabaudi (10^6 infected cells). The compound is administered twice daily for 4 consecutive days, the first injection being performed 2 hours after infestation, and the second 10 hours after. The parasitaemia is determined by means of a smear on the day following the end of the treatment.
The results are collated in Table II, in the form of an ED50 (dose of compound administered in vivo capable of a 50% inhibition of the growth of the parasites).

Data set [3] in a line: Semi-chronic toxicity in vivo. The note with it: mouse, mice.
The conditions of data set [4]: cited from earlier work.
For data set [5] the following is noted: cited from earlier work. The source holds these as a separate data set.
Setting [6] is: 33 nM, read-out: Plasmodium IC50 in vitro resp. at 33 nM.
The mark [7] stands for this setting: 100 nM, read-out: Plasmodium IC50 in vitro resp. 100 nM.
[8] abbreviates: ip, I.P., 2 injections daily for four days, read-out: Toxicity LD50 I.P.
Setting [9] is: po, P.O., semi-chronic, four days, read-out: Toxicity LD50 P.O.

pIC50: −log10 of the molar value. Structures can show the parent of a compound that is named as a salt. Where two headings read alike, the source gives them in different places. A value given as a limit tells only on which side of the number the result lay.

Consider `Cc1ccc(=N)n(CCCCCCCCCCCCn2c(C)c(C)ccc2=N)c1C` [Example 22, 1,1'-(1,12-dodecanediyl)bis(5,6-dimethyl-2(1H)-pyridinimine)], for which the IC50 upper bound (active at tested concentration) was below 33 nM in data set [1] (setting [6]) and below 100 nM in data set [1] (setting [7]).
One may read the ED50 as the dose at which the effect has come halfway, by size or by number of responders. A low value points to an effect at a small dose. As usually defined, the LD50 is the dose expected to kill half of the subjects tested. Broadly, the pIC50 is −log10 of the IC50, conventionally taken in molar units. For the compound `N=c1ccc(Cl)cn1CCCCCCCCCCCCn1cc(Cl)ccc1=N` [Example 9, 1,1'-(1,12-dodecanediyl)bis(5-chloro-2(1H)-pyridinimine) dihydrobromide], the ED50 in data set [2] came out at 4 mg/kg. In addition, the 50% lethal dose (LD50) in data set [3] (setting [8]) was 10 mg/kg; in data set [3] (setting [9]) it was above 200 mg/kg. Further, the IC50 upper bound (active at tested concentration) is below 33 nM in data set [1] (setting [6]) and below 100 nM in data set [1] (setting [7]). In addition, the negative logarithm of the IC50 (pIC50) in data set [1] is 8.85.
Turning to `N=c1c(Cl)cc(C(F)(F)F)cn1CCCCCCCCCCCCn1cc(C(F)(F)F)cc(Cl)c1=N` [Example 11, 1,1'-(1,12-dodecanediyl)bis(3-chloro-5-trifluoromethyl-2(1H)-pyridinimine) dihydrobromide], the IC50 upper bound (active at tested concentration) was below 33 nM in data set [1] (setting [6]) and below 100 nM in data set [1] (setting [7]).
Taken in the same sequence, the figures for `Cc1cc(C)c(=N)n(CCCCCCCCCCCCn2cc(C)cc(C)c2=N)c1` [Example 18, 1,1'-(1,12-dodecanediyl)bis(3,5-dimethyl-2(1H)-pyridinimine)] were below 33 nM and below 100 nM.
The matching figures for `CCc1ccn(CCCCCCCCCCCCCCCCn2ccc(CC)cc2=N)c(=N)c1` [Example 16, 1,1'-(1,16-hexadecanediyl)bis(4-ethyl-2(1H)-pyridinimine) dihydrobromide]: above 33 nM and below 100 nM.
Taken in the same sequence, the figures for `Cc1cc(=N)n(CCCCCCCCCCCCn2cc(C)c(C)cc2=N)cc1C` [Example 20, 1,1'-(1,12-dodecanediyl)bis(4,5-dimethyl-2(1H)-pyridinimine)] were below 33 nM and below 100 nM.
For `Cc1ccc(=N)n(CCCCCCCCCCCCn2cc(C)ccc2=N)c1` [Example 3, 1,1'-(1,12-dodecanediyl)bis(5-methyl-2(1H)-pyridinimine) dihydrobromide], in data set [2], it took a dose of 3 mg/kg to reach the 50% effect level (ED50). Also, the LD50 in data set [3] (setting [8]) is 6.5 mg/kg; in data set [3] (setting [9]), above 300 mg/kg. The IC50 upper bound (active at tested concentration) in data set [1] (setting [6]) was below 33 nM; in data set [1] (setting [7]) it was below 100 nM. For the same compound, the pIC50 in data set [1] was 9.30.
On to `CCc1cccc(=N)n1CCCCCCCCCCCCn1c(CC)cccc1=N` [Example 26, 1,1'-(1,12-dodecanediyl)bis(6-ethyl-2(1H)-pyridinimine)], for which the IC50 upper bound (active at tested concentration) in data set [1] (setting [6]) is below 33 nM; in data set [1] (setting [7]), below 100 nM.
`CCCCc1cccn(CCCCCCCCCCCCn2cccc(CCCC)c2=N)c1=N` [Example 8, 1,1'-(1,12-dodecanediyl)bis(3-n-butyl-2(1H)-pyridinimine) dihydrobromide]: the IC50 upper bound (active at tested concentration) was below 33 nM in data set [1] (setting [6]) and below 100 nM in data set [1] (setting [7]).
As to `Cc1ccn(CCCCCCCCn2ccc(C)cc2=N)c(=N)c1` [Example 13], the IC50 upper bound (active at tested concentration) in data set [1] (setting [6]) is below 33 nM; in data set [1] (setting [7]), below 100 nM.
Regarding `Cc1ccn(CCCCCCCCCCCCCCCCn2ccc(C)cc2=N)c(=N)c1` [Example 15, 1,1'-(1,16-hexadecanediyl)bis(4-methyl-2(1H)-pyridiniminedihydrobromide], the figures for the IC50 upper bound (active at tested concentration) in data set [1] (setting [6]) and in data set [1] (setting [7]) were below 33 nM and below 100 nM, respectively.
The matching figures for `Cc1cc(C)n(CCCCCCCCCCCCn2c(C)cc(C)cc2=N)c(=N)c1` [Example 21, 1,1'-(1,12-dodecanediyl)bis(4,6-dimethyl-2(1H)-pyridinimine)]: below 33 nM and below 100 nM.
The matching figures for `Cc1ccc(C)n(CCCCCCCCCCCCn2c(C)ccc(C)c2=N)c1=N` [Example 19, 1,1'-(1,12-dodecanediyl)bis(3,6-dimethyl-2(1H)-pyridinimine)]: below 33 nM and below 100 nM.
The matching figures for `Cc1ccc(=N)n(CCCCCCCCn2cc(C)ccc2=N)c1` [Example 12, 1,1'-(1,8-octanediyl)bis(5-methyl-2(1H)-pyridinimine) dihydrobromide]: above 33 nM and below 100 nM.
In the case of `Cc1cccn(CCCCCCCCCCCCn2cccc(C)c2=N)c1=N` [Example 2, 1,1'-(1,12-dodecanediyl)bis(3-methyl-2(1H)-pyridinimine) dihydrobromide], the 50% effect level in data set [2] (ED50) was put at a dose of 3 mg/kg. In addition, the median lethal dose (LD50) is 20 mg/kg in data set [3] (setting [8]) and above 500 mg/kg in data set [3] (setting [9]). Further, the IC50 upper bound (active at tested concentration) in data set [1] (setting [6]) is below 33 nM; in data set [1] (setting [7]), below 100 nM. Further, the negative logarithm of the IC50 (pIC50) in data set [1] is 8.74.
Turning to `C[C@@H]1CC[C@H]2[C@@H](C)C(=O)O[C@@H]3O[C@@]4(C)CC[C@@H]1[C@]32OO4` [artemisinine], the water-solubility entry in data set [4] was “low water-solubility”.
On to `C[C@H]1[C@@H](O)O[C@@H]2O[C@@]3(C)CC[C@H]4[C@H](C)CC[C@@H]1[C@@]24OO3` [dihydroartemisinine], for which, in data set [5], the half-life result is reported as “short half-life”. The water-solubility result in data set [4] is “low water-solubility”.
Consider `CCc1ccn(CCCCCCCCCCCCn2ccc(CC)cc2=N)c(=N)c1` [Example 24, 1,1'-(1,12-dodecanediyl)bis(4-ethyl-2(1H)-pyridinimine)], for which the IC50 upper bound (active at tested concentration) in data set [1] (setting [7]) is above 100 nM.
For `N=c1ccc(-c2ccccc2)cn1CCCCCCCCCCCCn1cc(-c2ccccc2)ccc1=N` [Example 5, 1,1'-(1,12-dodecanediyl)bis(5-phenyl-2(1H)-pyridinimine) dihydrobromide], the figures for the IC50 upper bound (active at tested concentration) in data set [1] (setting [6]) and in data set [1] (setting [7]) were below 33 nM and below 100 nM, respectively.
In turn, `CCc1cccn(CCCCCCCCCCCCn2cccc(CC)c2=N)c1=N` [Example 23, 1,1'-(1,12-dodecanediyl)bis(3-ethyl-2(1H)-pyridinimine)] showed a median effective dose (ED50) in data set [2] above 5 mg/kg. Besides, the LD50 in data set [3] (setting [8]) was 23 mg/kg; in data set [3] (setting [9]), above 400 mg/kg. Also, the values for the IC50 upper bound (active at tested concentration) in data set [1] (setting [6]) and in data set [1] (setting [7]) were above 33 nM and below 100 nM, respectively. In data set [1], this compound showed a negative logarithm of the IC50 (pIC50) of 8.14.
With `Cc1ccn(CCCCCCn2ccc(C)cc2=N)c(=N)c1` [Example 14, 1,1'-(1,6-hexanediyl)bis(4-methyl-2(1H)-pyridinimine) dihydrobromide], the IC50 upper bound (active at tested concentration) was above 33 nM in data set [1] (setting [6]) and below 100 nM in data set [1] (setting [7]).
The matching figures for `Cc1ccn(CCCCCCCCCCCCn2ccc(C)c(C)c2=N)c(=N)c1C` [Example 17, 1,1'-(1,12-dodecanediyl)bis(3,4-dimethyl-2(1H)-pyridinimine)]: below 33 nM and below 100 nM.
In the case of `N=c1cc(Br)ccn1CCCCCCCCCCCCn1ccc(Br)cc1=N` [Example 10, 1,1'-(1,12-dodecanediyl)bis(4-bromo-2(1H)-pyridinimine) dihydrobromide], the IC50 upper bound (active at tested concentration) in data set [1] (setting [6]) was below 33 nM; in data set [1] (setting [7]), below 100 nM.
Regarding `CCc1ccc(=N)n(CCCCCCCCCCCCn2cc(CC)ccc2=N)c1` [Example 25, 1,1'-(1,12-dodecanediyl)bis(5-ethyl-2(1H)-pyridinimine)], the median effective dose (ED50) in data set [2] was above 5 mg/kg. Besides, the 50% lethal dose (LD50) is 7.5 mg/kg in data set [3] (setting [8]) and above 200 mg/kg in data set [3] (setting [9]). For the same compound, the values for the IC50 upper bound (active at tested concentration) in data set [1] (setting [6]) and in data set [1] (setting [7]) were below 33 nM and below 100 nM, respectively. This compound also had a negative-log IC50 (pIC50) in data set [1] of 8.42.
Take `Cc1ccc(-c2ccn(CCCCCCCCCCCCn3ccc(-c4ccc(C)cc4)cc3=N)c(=N)c2)cc1` [Example 7, 1,1'-(1,12-dodecanediyl)bis(4-(4-methyl-phenyl)-2(1H)-pyridinimine) dihydrobromide]: the results for the IC50 upper bound (active at tested concentration) in data set [1] (setting [6]) and in data set [1] (setting [7]) were below 33 nM and below 100 nM, respectively.
Taken in the same sequence, the figures for `Cc1cccc(=N)n1CCCCCCCCCCCCn1c(C)cccc1=N` [Example 4, 1,1'-(1,12-dodecanediyl)bis(6-methyl-2(1H)-pyridinimine) dihydrobromide] were below 33 nM and below 100 nM.
For `N=c1c(OCc2ccccc2)cccn1CCCCCCCCCCCCn1cccc(OCc2ccccc2)c1=N` [Example 6, 1,1'-(1,12-dodecanediyl)bis(3-phenylmethoxy-2(1H)-pyridinimine) dihydrobromide], the IC50 upper bound (active at tested concentration) in data set [1] (setting [6]) was below 33 nM; in data set [1] (setting [7]) it was below 100 nM.
